Results taken from patent US11236102B2, “Oxabicycloheptane prodrugs” (Lixte Biotechnology, Inc., priority 2015, dated 2022).

How the values were obtained:
in vivo = assay: in vivo; design: species or system SD rats; settings: rat, in vivo, iv, 1 mg/kg
Description: 105 was dissolved in 4% NaHCO3 in saline for IV administration. The detailed procedure of dosing solution preparation was presented in Appendix I.
Thirteen (13) animals were placed on the study. The animals in IV arm were free access to food and water. One extra animal was used for blank liver and plasma generation (5 mL per animal). The resulting blank liver and plasma was then applied to the development of bioanalytical method and sample bioanalysis for the entire study.
The IV injection was conducted via foot dorsal vein. Animals were free access to food and water before dose.
The animal is restrained manually. Approximately 150 μL of blood/time point is collected into sodium heparin tube via cardiac puncture for terminal bleeding (anesthetized under carbon dioxide). Blood sample will be put on ice and centrifuged to obtain plasma sample (2000 g, 5 min under 4° C.) within 10 minutes.
The animal will be euthanized with carbon dioxide inhalation. Open abdominal cavity with scissor to expose internal organs. Hold the carcass in an upright position and allow the organs to fall forward. Cut the connective tissues and remove the organs. Then the organs are rinsed with cold saline, dried on filtrate paper, placed into a screw-top tube and weighed, snap frozen by placing into dry-ice immediately.
Plasma and liver samples were stored at approximately −80° C. until analysis. The backup samples will be discarded after three weeks after in-life completion unless requested. The unused dosing solutions will be discarded within three weeks after completion of the study
Software: The PK parameters were determined by non-compartmental model of non-compartmental analysis tool, Pharsight Phoenix WinNonlin® 6.2 software.
Concentration data within 80%-120% of LLOQ was considered within normal instrumental variation and presented in the results. Terminal t1/2 calculation: Time points were automatic selected by “best fit” model for terminal half life estimation as the first option. Manual selection was applied when “best fit” could not well define the terminal phase.

protein phosphatase PP2A = protein phosphatase PP2A (Homo sapiens, UniProt P67775); assay: Inhibition of purified protein phosphatase PP2A; type: biochemical
Sequence of protein phosphatase PP2A (P67775 whole entry): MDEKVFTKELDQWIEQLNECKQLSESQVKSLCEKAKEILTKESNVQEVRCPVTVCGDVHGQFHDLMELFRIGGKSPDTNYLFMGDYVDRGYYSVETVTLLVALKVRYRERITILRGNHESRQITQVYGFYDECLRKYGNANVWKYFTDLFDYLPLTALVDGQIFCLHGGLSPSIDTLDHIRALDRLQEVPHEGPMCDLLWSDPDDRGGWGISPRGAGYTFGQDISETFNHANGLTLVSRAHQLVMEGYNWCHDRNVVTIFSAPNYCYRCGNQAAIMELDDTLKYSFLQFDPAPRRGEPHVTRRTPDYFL
Description: In vivo, endothall has a longer half-life that LB-100 on the order of 6 hours compared to about 1 hour or less for LB-100. […] A half-life of several hours of activity is clinically more desirable that much shorter durations. Modification of substituents of LB-100 provide opportunities to further enhance the clinical usefulness of LB-100 by for example improving oral absorption, uptake into specific organs bearing the disease process, for example, the brain, and further modifying the rate of conversion for effective delivery of parent compound and/or endothall to tissue.

O=C(O)C1C2CCC(O2)C1C(=O)O (stereo not drawn) [Endothal, 7-oxabicyclo[2.2.1]heptane-2,3-dicarboxylic acid]
AUC(0-last) in liver (in vivo): 3152 ng·h/g | AUC(0-∞) in liver (in vivo): 4896 ng·h/g | IC50 (protein phosphatase PP2A): ~90 nM
